Test results published in ChEMBL document CHEMBL1165847, “Urotensin-II receptor modulators as potential drugs” (J Med Chem, 2010).
The source made the active and inactive calls. The calls are words filed in the database; no cut-off is given here. Where a SMILES comes first, the peptide text is derived from it. Bridges are numbered along the chain shown (N, C = ends). [ ]: non-standard residue; d: D form. 1Nal = N[C@@H](Cc1cccc2ccccc12)C(=O)O; 2Nal = N[C@@H](Cc1ccc2ccccc2c1)C(=O)O

Columns and labels:
[1] = biological target: T1, Urotensin-2 receptor (Rattus norvegicus, UniProt P49684); assay: Displacement of [125I]U2 from rat urotensin 2 receptor expressed in CHO cells; type: cell-based
T1 sequence (P49684 whole entry): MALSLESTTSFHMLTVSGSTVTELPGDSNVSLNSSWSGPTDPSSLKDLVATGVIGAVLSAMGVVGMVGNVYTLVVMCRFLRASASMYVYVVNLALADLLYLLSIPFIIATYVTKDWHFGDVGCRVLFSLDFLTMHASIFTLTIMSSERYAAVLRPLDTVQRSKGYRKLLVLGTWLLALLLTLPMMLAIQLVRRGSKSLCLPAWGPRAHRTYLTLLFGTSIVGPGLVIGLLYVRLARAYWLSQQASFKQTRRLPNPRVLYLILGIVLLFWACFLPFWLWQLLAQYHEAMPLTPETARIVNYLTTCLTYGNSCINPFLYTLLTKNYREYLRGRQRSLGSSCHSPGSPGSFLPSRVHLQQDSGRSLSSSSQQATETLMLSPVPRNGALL

[2] = biological target: T1, Urotensin-2 receptor; assay: Agonist activity at rat urotensin 2 receptor expressed in CHO cells assessed as calcium mobilization by FLIPR; type: functional, cell-based
[3] = biological target: T2, Urotensin-2 receptor (Rattus norvegicus) (UniProt P49684); assay: Antagonist activity at rat urotensin 2 receptor expressed in CHO cells assessed as calcium mobilization at 100 nM by FLIPR; type: functional, cell-based
T2 sequence (whole entry): T1 sequence (P49684 whole entry)

[4] = biological target: T2, Urotensin-2 receptor (Rattus norvegicus); assay: Antagonist activity at rat urotensin 2 receptor expressed in CHO cells assessed as calcium mobilization at 300 nM by FLIPR; type: functional, cell-based
[5] = system: Aorta; assay: Vasoconstriction activity in spontaneously […] rat thoracic aorta at 30 nM; type: functional
[6] = biological target: T2, Urotensin-2 receptor (Rattus norvegicus); assay: Agonist activity at rat urotensin 2 receptor expressed in CHO cells assessed as calcium mobilization at 1000 nM by FLIPR; type: functional, cell-based
[7] = biological target: T2, Urotensin-2 receptor (Rattus norvegicus); assay: Antagonist activity at rat urotensin 2 receptor expressed in CHO cells assessed as calcium mobilization at 10000 nM by FLIPR; type: functional, cell-based

Molecule | Ki [1] [nM] | EC50 [2] [nM] | also measured
CC(=O)N[C@H]1CSSC[C@@H](C(N)=O)NC(=O)[C@H](Cc2ccc(O)cc2)NC(=O)[C@H](CCCCN)NC(=O)[C@H](Cc2ccc3ccccc3c2)NC(=O)[C@H](Cc2ccccc2)NC1=O (Ac-CF[2Nal]KYC-NH2; disulfide 1-6) | 200 | 31 | 
CC(=O)N[C@H]1CSSC[C@@H](C(N)=O)NC(=O)[C@@H](Cc2ccc(O)cc2)NC(=O)[C@H](CCCCN)NC(=O)[C@H](Cc2c[nH]c3ccccc23)NC(=O)[C@H](Cc2ccccc2)NC1=O | 1100 | 37 | 
COc1cc(Br)c(S(=O)(=O)Nc2ccc(C(F)(F)F)c(O[C@@H]3CCN(C)C3)c2)cc1OC |  |  | inhibition [3]: 97%
CC(C)[C@H](NC(=O)[C@@H]1CSSC[C@H](NC(=O)[C@H](CC(=O)O)NC(=O)[C@H](C)N)C(=O)N[C@@H](Cc2ccccc2)C(=O)N[C@@H](C)C(=O)N[C@@H](CCCCN)C(=O)N[C@@H](Cc2ccc(O)cc2)C(=O)N1)C(=O)O (H-ADCFAKYCV-OH; disulfide 3-8) |  | > 1000 | 
CC(C)[C@H](NC(=O)[C@@H]1CSSC[C@H](NC(=O)[C@H](CC(=O)O)NC(=O)[C@H](C)N)C(=O)N[C@@H](Cc2ccccc2)C(=O)N[C@@H](Cc2c[nH]c3ccccc23)C(=O)N[C@@H](C)C(=O)N[C@@H](Cc2ccc(O)cc2)C(=O)N1)C(=O)O (H-ADCFWAYCV-OH; disulfide 3-8) |  | > 1000 | 
CC(=O)N[C@H]1CSSC[C@@H](C(N)=O)NC(=O)[C@H](Cc2ccc(O)cc2)NC(=O)[C@@H](CCCCN)NC(=O)[C@H](Cc2c[nH]c3ccccc23)NC(=O)[C@H](Cc2ccccc2)NC1=O |  |  | Activity [4]: inactive; Ki ([1]; cho): < 10000 nM
CC(=O)N[C@H]1CSSC[C@@H](C(N)=O)NC(=O)[C@H](Cc2ccc3ccccc3c2)NC(=O)[C@H](CCCCN)NC(=O)[C@H](Cc2c[nH]c3ccccc23)NC(=O)[C@H](Cc2ccccc2)NC1=O (Ac-CFWK[2Nal]C-NH2; disulfide 1-6) |  |  | Activity [5]: 43%
CC(=O)N[C@H]1CSSC[C@@H](C(N)=O)NC(=O)[C@H](Cc2ccc(O)cc2)NC(=O)[C@H](CCCCN)NC(=O)[C@@H](Cc2c[nH]c3ccccc23)NC(=O)[C@H](Cc2ccccc2)NC1=O | 610 | 26 | 
Ac-SFWKYS-NH2 |  | < 500 | Activity [6]: 50%; Activity [4]: inactive; Ki ([1]; cho): < 10000 nM
CC(=O)N[C@@H](Cc1c[nH]c2ccccc12)C(=O)N[C@@H](CCCCN)C(=O)N[C@@H](Cc1ccc(O)cc1)C(N)=O (Ac-Trp-Lys-Tyr-NH2) |  | < 500 | Ki ([1]; cho): < 10000 nM
CC(=O)N[C@H]1CSSC[C@@H](C(N)=O)NC(=O)[C@H](C)NC(=O)[C@H](CCCCN)NC(=O)[C@H](Cc2c[nH]c3ccccc23)NC(=O)[C@H](Cc2ccccc2)NC1=O (Ac-CFWKAC-NH2; disulfide 1-6) | > 10000 |  | Activity [6]: 50%; Activity [5]: 0%
CC(C)[C@H](NC(=O)[C@@H]1CSSC[C@H](NC(=O)[C@H](CC(N)=O)NC(=O)[C@H](C)N)C(=O)N[C@@H](Cc2ccccc2)C(=O)N[C@@H](Cc2c[nH]c3ccccc23)C(=O)N[C@@H](CCCCN)C(=O)N[C@@H](C)C(=O)N1)C(=O)O (H-ANCFWKACV-OH; disulfide 3-8) |  |  | Activity [7]: inactive; Activity [6]: 67%
CC(C)[C@H](NC(=O)[C@@H]1CSSC[C@H](NC(=O)[C@H](CC(=O)O)NC(=O)[C@H](C)N)C(=O)N[C@@H](C)C(=O)N[C@@H](Cc2c[nH]c3ccccc23)C(=O)N[C@@H](CCCCN)C(=O)N[C@@H](Cc2ccc(O)cc2)C(=O)N1)C(=O)O (H-ADCAWKYCV-OH; disulfide 3-8) |  | 6.5 | 
CC(=O)N[C@H]1CSSC[C@@H](C(N)=O)NC(=O)[C@H](Cc2ccc(O)cc2)NC(=O)[C@H](CCCCN)NC(=O)[C@H](Cc2c[nH]c3ccccc23)NC(=O)[C@@H](Cc2ccccc2)NC1=O |  |  | Activity [4]: inactive; Ki ([1]; cho): < 10000 nM
CC(C)[C@H](NC(=O)[C@@H]1CSSC[C@H](NC(=O)[C@H](CC(N)=O)NC(=O)[C@H](C)N)C(=O)N[C@@H](Cc2ccccc2)C(=O)N[C@@H](Cc2c[nH]c3ccccc23)C(=O)N[C@@H](C)C(=O)N[C@@H](Cc2ccc(O)cc2)C(=O)N1)C(=O)O (H-ANCFWAYCV-OH; disulfide 3-8) |  |  | Activity [7]: inactive
CC(C)[C@H](NC(=O)[C@@H]1CSSC[C@H](NC(=O)[C@H](CC(N)=O)NC(=O)[C@H](C)N)C(=O)N[C@@H](Cc2ccccc2)C(=O)N[C@@H](C)C(=O)N[C@@H](CCCCN)C(=O)N[C@@H](Cc2ccc(O)cc2)C(=O)N1)C(=O)O (H-ANCFAKYCV-OH; disulfide 3-8) |  |  | Activity [7]: inactive

More lines, main results first:

Ki [1] [nM] | EC50 [2] [nM] | Molecule | also measured
 | 0.1 | CC(C)[C@H](NC(=O)[C@@H]1CSSC[C@H](NC(=O)[C@@H](N)CC(=O)O)C(=O)N[C@@H](Cc2ccccc2)C(=O)N[C@@H](Cc2c[nH]c3ccccc23)C(=O)N[C@@H](CCCCN)C(=O)N[C@@H](Cc2ccc(O)cc2)C(=O)N1)C(=O)O (H-DCFWKYCV-OH; disulfide 2-7) | 
 | 0.11 | CC(C)[C@H](NC(=O)[C@@H]1CSSC[C@H](NC(=O)[C@H](CC(=O)O)NC(=O)[C@H](C)NC(=O)[C@@H](N)[C@@H](C)O)C(=O)N[C@@H](Cc2ccccc2)C(=O)N[C@@H](Cc2c[nH]c3ccccc23)C(=O)N[C@@H](CCCCN)C(=O)N[C@@H](Cc2ccc(O)cc2)C(=O)N1)C(=O)O (H-TADCFWKYCV-OH; disulfide 4-9) | 
 | 0.16 | CC(C)[C@H](NC(=O)[C@@H]1CSSC[C@H](NC(=O)[C@H](CC(=O)O)NC(=O)[C@H](C)N)C(=O)N[C@@H](Cc2ccccc2)C(=O)N[C@@H](Cc2c[nH]c3ccccc23)C(=O)N[C@@H](CCCCN)C(=O)N[C@@H](Cc2ccc(O)cc2)C(=O)N1)C(=O)O (H-ADCFWKYCV-OH; disulfide 3-8) | 
 | 0.29 | CC(C)[C@H](NC(=O)[C@@H]1CSSC[C@H](NC(=O)[C@H](CC(=O)O)NC(=O)[C@H](C)NC(=O)[C@@H](NC(=O)CN)[C@@H](C)O)C(=O)N[C@@H](Cc2ccccc2)C(=O)N[C@@H](Cc2c[nH]c3ccccc23)C(=O)N[C@@H](CCCCN)C(=O)N[C@@H](Cc2ccc(O)cc2)C(=O)N1)C(=O)O (H-GTADCFWKYCV-OH; disulfide 5-10) | 
 | 1.6 | NCCCC[C@@H]1NC(=O)[C@H](Cc2c[nH]c3ccccc23)NC(=O)[C@H](Cc2ccccc2)NC(=O)[C@@H](N)CSSC[C@@H](C(=O)O)NC(=O)[C@H](Cc2ccc(O)cc2)NC1=O (H-CFWKYC-OH; disulfide 1-6) | 
 | 0.76 | CC(C)[C@H](NC(=O)[C@@H]1CSSC[C@H](N)C(=O)N[C@@H](Cc2ccccc2)C(=O)N[C@@H](Cc2c[nH]c3ccccc23)C(=O)N[C@@H](CCCCN)C(=O)N[C@@H](Cc2ccc(O)cc2)C(=O)N1)C(=O)O (H-CFWKYCV-OH; disulfide 1-6) | 
 | 0.6 | CC(C)[C@H](NC(=O)[C@@H]1CSSC[C@H](NC(=O)[C@H](C)NC(=O)[C@H](C)N)C(=O)N[C@@H](Cc2ccccc2)C(=O)N[C@@H](Cc2c[nH]c3ccccc23)C(=O)N[C@@H](CCCCN)C(=O)N[C@@H](Cc2ccc(O)cc2)C(=O)N1)C(=O)O (H-AACFWKYCV-OH; disulfide 3-8) | 
15 | 1.6 | CC(=O)N[C@H]1CSSC[C@@H](C(N)=O)NC(=O)[C@H](Cc2ccc(O)cc2)NC(=O)[C@H](CCCCN)NC(=O)[C@H](Cc2c[nH]c3ccccc23)NC(=O)[C@H](Cc2ccccc2)NC1=O | 
 | 0.4 | C[C@H](N)C(=O)N[C@@H](CC(=O)O)C(=O)N[C@H]1CSSC[C@@H](C(=O)N[C@@H](C)C(=O)O)NC(=O)[C@H](Cc2ccc(O)cc2)NC(=O)[C@H](CCCCN)NC(=O)[C@H](Cc2c[nH]c3ccccc23)NC(=O)[C@H](Cc2ccccc2)NC1=O (H-ADCFWKYCA-OH; disulfide 3-8) | 
0.02 | 0.34 | CC(C)[C@H](NC(=O)[C@@H]1CSSC[C@H](NC(=O)[C@H](CC(=O)O)NC(=O)[C@H](C)NC(=O)[C@@H](NC(=O)CNC(=O)[C@H](C)N)[C@@H](C)O)C(=O)N[C@@H](Cc2ccccc2)C(=O)N[C@@H](Cc2c[nH]c3ccccc23)C(=O)N[C@@H](CCCCN)C(=O)N[C@@H](Cc2ccc3ccccc3c2)C(=O)N1)C(=O)O (H-AGTADCFWK[2Nal]CV-OH; disulfide 6-11) | 
17 | 2.1 | CC(=O)N[C@H]1CSSC[C@@H](C(N)=O)NC(=O)[C@H](Cc2ccccc2)NC(=O)[C@H](CCCCN)NC(=O)[C@H](Cc2c[nH]c3ccccc23)NC(=O)[C@H](Cc2ccccc2)NC1=O (Ac-CFWKFC-NH2; disulfide 1-6) | Activity [5]: 11%
0.19 | 0.17 | CC(C)[C@H](NC(=O)[C@@H]1CSSC[C@H](NC(=O)[C@H](CC(=O)O)NC(=O)[C@H](C)NC(=O)[C@@H](NC(=O)CNC(=O)[C@H](C)N)[C@@H](C)O)C(=O)N[C@@H](Cc2ccccc2)C(=O)N[C@@H](Cc2c[nH]c3ccccc23)C(=O)N[C@@H](CCCCN)C(=O)N[C@@H](Cc2ccc(O)cc2)C(=O)N1)C(=O)O (H-AGTADCFWKYCV-OH; disulfide 6-11) | Activity [5]: 91%
4.1 | 1.5 | CC(=O)N[C@H]1CSSC[C@@H](C(N)=O)NC(=O)[C@H](Cc2cccc3ccccc23)NC(=O)[C@H](CCCCN)NC(=O)[C@H](Cc2c[nH]c3ccccc23)NC(=O)[C@H](Cc2ccccc2)NC1=O (Ac-CFWK[1Nal]C-NH2; disulfide 1-6) | 
